{
  "source": "patent US6916834B2",
  "about": "“Preparations and use of an Ah receptor ligand, 2-(1′H-indole-3′-carbonyl)-thiazole-4-carboxylic acid methyl ester” (Wisconsin Alumni Research Foundation, priority 2001, dated 2005)",
  "key": {"Ah receptor [1]": {"target": "T1, Ah receptor (Mus musculus, UniProt P30561)", "T1 construct": "endogenous in cells; host or cells: H1L1.1C2 AhR ligand reporting cells", "T1 sequence (P30561 10-848)": "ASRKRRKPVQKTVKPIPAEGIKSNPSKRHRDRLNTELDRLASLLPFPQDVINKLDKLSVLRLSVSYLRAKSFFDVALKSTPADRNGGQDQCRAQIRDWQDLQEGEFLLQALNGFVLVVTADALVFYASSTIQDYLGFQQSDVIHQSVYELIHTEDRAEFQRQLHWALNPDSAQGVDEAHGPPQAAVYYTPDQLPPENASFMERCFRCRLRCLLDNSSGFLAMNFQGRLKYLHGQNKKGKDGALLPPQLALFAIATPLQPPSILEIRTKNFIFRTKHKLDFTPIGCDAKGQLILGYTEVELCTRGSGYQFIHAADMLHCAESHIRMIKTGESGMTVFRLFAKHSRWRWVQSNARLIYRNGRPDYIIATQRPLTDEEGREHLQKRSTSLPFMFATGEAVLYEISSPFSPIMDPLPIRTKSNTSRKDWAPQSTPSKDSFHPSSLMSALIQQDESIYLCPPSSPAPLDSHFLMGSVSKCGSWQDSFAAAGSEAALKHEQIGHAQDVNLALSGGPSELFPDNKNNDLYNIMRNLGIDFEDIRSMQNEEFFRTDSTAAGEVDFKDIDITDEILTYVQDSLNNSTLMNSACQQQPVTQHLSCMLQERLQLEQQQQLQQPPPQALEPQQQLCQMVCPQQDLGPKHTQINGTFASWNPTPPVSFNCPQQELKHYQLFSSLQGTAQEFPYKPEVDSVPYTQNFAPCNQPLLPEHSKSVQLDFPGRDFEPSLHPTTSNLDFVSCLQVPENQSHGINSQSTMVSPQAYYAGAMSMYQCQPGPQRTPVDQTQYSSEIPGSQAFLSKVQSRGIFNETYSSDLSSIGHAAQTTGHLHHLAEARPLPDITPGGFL", "experiment": "AhR ligand activity assay (luciferase reporter gene, H1L1.1C2 ligand reporting cells)", "format": "cell-based", "method": "The ligand activity is determined most preferably by an activity assay described below. In brief, the ligand extracts are added to Ah receptor-containing ligand reporter cells. These cells are then incubated for 4 hours and the cells are lysed to release the formed luciferase. This enzyme typically is measured according to the kit sold by Promega (Madison, Wis., USA.). Luciferase activity is measured by light emission recorded by a luminometer. The luminometer readings are taken after a substrate solution is injected into a well.\nThe cell line H1L1.1C2 was maintained in a culture medium (DMEM+10% FBS) with G418 at a concentration of 400 μg/ml and incubated under an atmosphere of 37° C., 6% CO2, and 100% humidity. A 96 well sterile cell culture plate with about 30,000 cells per well in 200 μl of the culture medium without G418 was prepared and incubated for at least 12 hours before being dosed for ligand activity assay.\nThe solvents from the ligand activities were evaporated and the activities were reconstituted in DMSO and 1 μl of this solution was used to dose the ligand reporting cells in a well with 200 μl of culture medium. One row of the reporting cells in each assay plate was dosed with 1 μl of the DMSO solutions of a set of βNF standards to generate a standard dose response curve. The dosed cells were incubated for 6 hours under the same environment as they were maintained. The cells were washed twice with a 1×PBS (pH 6.9) after the incubation and the culture wells were scanned under an inverted microscope to detect any obvious cell number change due to dosing. The cells were lysed by adding 50 μl of a 1×cell lysis reagent (Promega, Madison, Wis., USA) and 10 μl of the lysate from each well were transferred into a corresponding well of a Microlite 2 plate (Dynex Technologies Inc., Chantilly, Va., USA) for luminometer reading. A MLX Microtiter Plate Luminometer (Dynex Technologies Inc.) was programmed to inject 50 μl of a luciferase substrate solution (Promega) into a well, read the light intensities in Relative Light Units (RLU's) generated by the luciferase reaction for 5 seconds after a one second delay following the injection, and take the average of the 5 second readings as a final RLU.\nDose response curves of RLU's vs. doses of βNF standards (ng in each assay well) from each plate were plotted and the RLU's generated by the samples were converted into βNF equivalent (BEQ) as ligand activity by consulting the βNF dose response curve generated from the same plate. Data were reported as ligand activity (in BEQ) vs. treatments or fractions from a purification procedure."}, "[2]": {"experiment": "Solubility and stability characterisation of the ligand preparation", "format": "physicochemical", "method": "The preferred ligand preparation described below can be characterized by its solubility. The ligand is extractable from tissue by 80% methanol/20% water. After the boiling and acid treatment, the ligand is extractable in chloroform.\nThe ligand preparation is unstable in base but stable in up to two normal acid for at least 24 hours. The preparation is stable to heating at 37° C. overnight (16 hours) and at 100° C. for 24 hours."}, "Ah receptor [3]": {"target": "T1, Ah receptor", "experiment": "Reduction with NaBH4, phases assayed for biological activity", "format": "cell-based", "details": "saturated NaBH4 in ethanol, overnight, room temperature; data not shown", "method": "Specified quantity of the compound was pipetted into a glass via for reaction and the solvents were evaporated. A saturated solution (100 μl) of NaBH4 in ethanol (200 proof, Aaper Alcohol and Chemical Co. Shelbyville, Ky., U.S.A.) was added to each reaction tube. The mixture was incubated overnight at room temperature and stopped by adding 200 μl of water. The reactions were extracted with 200 μl of chloroform twice and the chloroform phases were pooled. The solvents from both aqueous and chloroform phases were evaporated and both phases were assayed for biological activities. The chloroform phase was analyzed with electron impact mass spectroscopy as was a blank treated identically but containing no isolate."}, "Ah receptor [4]": {"target": "T1, Ah receptor", "experiment": "Base treatment followed by ligand activity assay", "format": "cell-based", "details": "0.1 N KOH, 37° C., overnight", "method": "An aliquot of methanolic extracts of about 4 ng BEQ was transferred into a cleaned glass vial and the solvents were evaporated. A solution (200 ul) of 0.1 N KOH in water was added into the vial. The vials were incubated at 37° C. overnight. After the incubation, the tubes were cooled down and neutralized slowly with HCl. The treatment mixtures were extracted with 200 μl of chloroform. Chloroform and aqueous phases were separated and the solvents were evaporated. DMSO (10 μl) was added to each tube for activity assay. βNF and blank extracts were treated the same way as for the sample."}, "Ah receptor [5]": {"target": "T1, Ah receptor", "experiment": "Base hydrolysis and methylation, products assayed for biological activity", "format": "cell-based", "details": "same manipulations as for the ligand", "protocol": "To 2 μl of methanol with 3 ng BEQ of the sample, 38 μl of methanol of 10 μl of a 0.5 mm KOH in water were added and mixed. The reaction was incubated at 37° C. for 2 hours and stopped by adding 10 μl of 0.5 mmolar HCl in water to bring pH to around 5.0. To the reaction mix, 30 μl of water, 10 μl of methanol, and 50 μl of chloroform were added and mixed. The chloroform phase was separated and kept after centrifugation of the mixture. The chloroform extraction was repeated and the two chloroform phases were pooled. The chloroform phase was split into two parts, one for biological assay and the other for methylation. The same manipulations were performed for 3 ng of βNF in 2 μl of methanol and 2 μl of methanol as controls.\nThe solvents were evaporated and the products were assayed side by side with the hydrolysis products without methylation."}, "Ah receptor [6]": {"target": "T1, Ah receptor", "experiment": "Heat treatment followed by ligand activity assay", "format": "cell-based", "details": "100° C. water bath, 30 minutes", "method": "The methanolic extracts either in methanol or DMSO in a cleaned glass vials were heated in a 100° C. water bath for 30 minutes and the vials were cooled to room temperature. The extracts in the solvents were directly assayed as they were to determine the activities."}},
  "data": [
    {"smiles": "COc1cc(-c2cc(=O)c3ccccc3o2)ccc1[N+](=O)[O-]", "note": "[3′-methoxy-4′-nitroflavone]", "values": [
      {"measurement": "antagonism of the reporter gene response to ITE", "setting": "Ah receptor [1]; AhR antagonist, data not shown", "result": "block the reporter gene response to the compound in a dose dependent fashion"}
    ]},
    {"smiles": "COC(=O)c1csc(C(=O)c2c[nH]c3ccccc23)n1", "note": "[ITE, 2-(1′-H-indole-3′-carbonyl)-thiazole-4-carboxylic acid methyl ester]", "values": [
      {"measurement": "extractability from tissue by 80% methanol/20% water", "setting": "[2]", "result": "extractable"},
      {"measurement": "stability in base", "setting": "[2]", "result": "unstable"},
      {"measurement": "time stable in up to two normal acid", "setting": "[2]", "result": "at least 24 hours"},
      {"measurement": "stability to heating at 100° C.", "setting": "[2]; 24 hours", "result": "stable"},
      {"measurement": "extractability in chloroform", "setting": "[2]; after the boiling and acid treatment", "result": "extractable"},
      {"measurement": "stability to heating at 37° C.", "setting": "[2]; overnight (16 hours)", "result": "stable"},
      {"measurement": "biological activity of synthetic compound compared with the isolate", "setting": "Ah receptor [1]", "result": "the same biological activity"},
      {"measurement": "reporter gene potency relative to βNF", "setting": "Ah receptor [1]; dose response curves after 4 hours of incubation, FIG. 7B", "result": "about five"},
      {"measurement": "biological activity after reduction with NaBH4", "setting": "Ah receptor [3]", "result": "completely destroyed the biological activity"}
    ]},
    {"smiles": "O=c1cc(-c2ccccc2)oc2ccc3ccccc3c12", "note": "[βNF, β-Naphthoflavone]", "values": [
      {"measurement": "response of ligand activity to base treatment", "setting": "Ah receptor [4]", "result": "did not respond"},
      {"measurement": "induction over vehicle control", "setting": "Ah receptor [1]; 0.05 ng of βNF per assay well (200 μl medium), 96 well format", "result": "two to three"},
      {"measurement": "amount generating a distinguishable signal", "setting": "Ah receptor [1]; per assay well, 96 well format", "result": 0.01, "unit": "ng"},
      {"measurement": "change in biological activity after hydrolysis and methylation manipulations", "setting": "Ah receptor [5]", "result": "no change"},
      {"measurement": "response of ligand activity to heat treatment", "setting": "Ah receptor [6]", "result": "did not respond"}
    ]}
  ]
}
